Patent US12678446B2 (PFIZER INC., priority 2020, dated 2026)

How the values were obtained:
[1] = cell toxicity CC50; format: cell-based; conditions: human; Hep-G2 cells; mean of at least two experiments; read-out: Cell Cytotoxicity CC50
[2] = tested on: RSV (RSV A2 ECACC, 0709161v); experiment: RSV plaque reduction assay; format: cell-based, respiratory syncytial virus; conditions: human respiratory syncytial virus, HepG2, read-out: RSV A2 Plaque EC50, RSV A2 in Hep-G2 cells; mean of at least two experiments unless noted (n = 1)
In short: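 Eight-point compound dilutions were premixed with RSV A2 (100 PFU/well) and applied to confluent Hep-G2 cells for 2 h, followed by a 2-day incubation at 37° C. under compound-containing 0.8% CMC overlay. EC50 comes from immunostained plaque counts relative to untreated virus wells, averaged over ≥2 runs.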

SMILES	CC50 [1]	EC50 [2]
O=C(N[C@H]1N=C(c2ccccc2)c2cccc(F)c2NC1=O)c1c(-c2ccccc2F)nn2c1OC(CN1CCOCC1)CC2 (stereo partly drawn) [Example 167, N-[(3S)-9-fluoro-2-oxo-5-phenyl-1,3-dihydro-1,4-benzodiazepin-3-yl]-2-(2-fluorophenyl)-5-(morpholin-4-ylmethyl)-6,7-dihydro-5H-pyrazolo[5,1-b][1,3]oxazine-3-carboxamide]	> 25000 nM	91 nM
C[C@@H]1CCn2nc(-c3cnn(C4CC4)c3)c(C(=O)N[C@H]3N=C(c4ccccc4)c4ccccc4NC3=O)c2O1 [Example 125, (5R)-2-(1-Cyclopropylpyrazol-4-yl)-5-methyl-N-[(3S)-2-oxo-5-phenyl-1,3-dihydro-1,4-benzodiazepin-3-yl]-6,7-dihydro-5H-pyrazolo[5,1-b][1,3]oxazine-3-carboxamide]	> 25000 nM	70 nM
CC(C)Nc1ccc(-c2nn3c(c2C(=O)N[C@H]2N=C(c4ccccc4)c4ccccc4NC2=O)OCC2(CC2)C3)cn1 [Example 178, 2-[6-(Propan-2-ylamino)pyridin-3-yl]-N-[(3S)-2-oxo-5-phenyl-1,3-dihydro-1,4-benzodiazepin-3-yl]spiro[5,7-dihydropyrazolo[5,1-b][1,3]oxazine-6,1′-cyclopropane]-3-carboxamide]	> 25000 nM	75 nM
CN(C)CC1COc2c(C(=O)N[C@H]3N=C(c4ccccc4)c4cccc(F)c4NC3=O)c(-c3ccccc3F)nn2C1 (stereo in doubt) [Example 171-1, (6R*)-6-[(Dimethylamino)methyl]-N-[(3S)-9-fluoro-2-oxo-5-phenyl-1,3-dihydro-1,4-benzodiazepin-3-yl]-2-(2-fluorophenyl)-6,7-dihydro-5H-pyrazolo[5,1-b][1,3]oxazine-3-carboxamide]	> 25000 nM	53 nM
C[C@@H]1CCn2nc(C3CCN(S(C)(=O)=O)CC3)c(C(=O)N[C@H]3N=C(c4ccccc4)c4ccccc4NC3=O)c2O1 [Example 162, (5R)-5-Methyl-2-(1-methylsulfonylpiperi-din-4-yl)-N-[(3S)-2-oxo-5-phenyl-1,3-dihydro-1,4-benzodiazepin-3-yl]-6,7-dihydro-5H-pyrazolo[5,1-b][1,3]oxazine-3-carboxamide]	> 25000 nM	166 nM
C[C@@H]1CCn2nc(-c3cc(C4CC4)cnc3F)c(C(=O)N[C@H]3N=C(c4ccccc4)c4cccc(F)c4NC3=O)c2O1 [Example 53, (5R)-2-(5-Cyclopropyl-2-fluoro-3-pyridyl)-N-[(3S)-9-fluoro-2-oxo-5-phenyl-1,3-dihydro-1,4-benzodiazepin-3-yl]-5-methyl-6,7-dihydro-5H-pyrazolo[5,1-b][1,3]oxazine-3-carboxamide]	> 25000 nM	92 nM
CC(C)C1CCn2nc(-c3ccccc3F)c(C(=O)N[C@H]3N=C(c4ccccc4)c4cccc(F)c4NC3=O)c2O1 (stereo partly drawn) [Example 8, N-[(3S)-9-fluoro-2-oxo-5-phenyl-2,3-dihydro-1H-1,4-benzodiazepin-3-yl]-2-(2-fluorophenyl)-5-(propan-2-yl)-5H,6H,7H-pyrazolo[3,2-b][1,3]oxazine-3-carboxamide]	> 25000 nM	37 nM
CC(C)Nc1ccc(-c2nn3c(c2C(=O)N[C@H]2N=C(c4ccccc4)c4cccc(F)c4NC2=O)OCC2(CC2)C3)cn1 [Example 179, 2-[6-(Propan-2-ylamino)pyridin-3-yl]-N-[(3S)-9-fluoro-2-oxo-5-phenyl-1,3-dihydro-1,4-benzodiazepin-3-yl]spiro[5,7-dihydropyrazolo[5,1-b][1,3]oxazine-6,1′-cyclopropane]-3-carboxamide]	> 25000 nM	34 nM
CCc1ccc(-c2nn3c(c2C(=O)N[C@H]2N=C(c4ccccc4)c4cccc(F)c4NC2=O)O[C@H](C)CC3)c(C)n1 [Example 66, (5R)-2-(6-Ethyl-2-methyl-3-pyridyl)-N-[(3S)-9-fluoro-2-oxo-5-phenyl-1,3-dihydro-1,4-benzodiazepin-3-yl]-5-methyl-6,7-dihydro-5H-pyrazolo[5,1-b][1,3]oxazine-3-carboxamide]	> 25000 nM	60 nM
